How the values were obtained:
spiral ganglion cells = assay: Spiral ganglion cell survival by anti-neurofilament antibody staining and microscopic counting; type: cell-based, Sprague-Dawley rats; conditions: for impact on viability of SGC: concentrations between 10^-12 and 10^-6 mol/L; for viability (survival) of spiral ganglion cells at high concentration: concentration of 10^-5 mol/L (FIG. 3)
Procedure: Spiral ganglion cells were freshly isolated from Sprague-Dawley rats (p3-5). Viable cells were suspended in Dulbecco's Modified Eagle's Medium supplemented with 10% fetal calf serum and 50 ng/ml BDNF and were seeded onto laminin- and ornithin-coated cell culture plates at a density of 1.5×10^4 cells/well. After a cultivation time of 48 hours, cells were stained with anti-neurofilament antibody and counted under a microscope. All experiments were performed in quadruplicate and the experiment was repeated four times.
(§1) Discs (0.1 mm thick and 6 mm in diameter) of poly(L-lactide) (PLLA, Resomer L214, Boehringer Ingelheim Pharma GmbH & Co. KG, Ingelheim, Germany), poly(4-hydroxybutyrate) (P(4HB), Tepha, Inc., Lexington, Mass., USA) and silicone were placed at the bottom of standard 96-well tissue culture plates. Microtiter plates without material additions served as controls. Cells were seeded into each of the different cell culture wells and the assays were carried out as described above in Examples 1 and 2. For absorption measurements when using NIH-3T3 cells and neutral red test, the supernatant of all wells was transferred into new wells after permeabilization of the cells. Surviving spiral ganglion cells were stained directly on the polymer discs and counted.

NIH-3T3 fibroblasts = assay: Neutral Red assay of NIH-3T3 fibroblast viability; type: cell-based; conditions: for impact on viability of NIH-3T3 cells: concentrations between 10^-12 and 10^-6 mol/L; for effect on NIH-3T3 cell viability: drug at concentrations between 10^-12 and 10^-4 mol/L, relative to control (no drug), 48 hours
Procedure: Cell survival and viability of NIH-3T3 fibroblasts were measured using a Neutral Red Assay. NIH-3T3 fibroblasts were seeded into 96-well cell culture plates at a density of 10^4 cells/well in Dulbecco's Modified Eagle's Medium supplemented with 10% fetal calf serum. After 48 hours, cells were stained using a Neutral Red Assay. Neutral red is taken up only by living cells.
After incubation for 3 hours and several washing steps, cells were permeabilized and the neutral red solubilized in the supernatant. The absorption measured at 570 nm is proportional to the number of living cells. Measurements were run in quintuplicate and results were averaged. The experiment was repeated at least four times.
as §1
The NIH-3T3 fibroblasts were cultured and assayed with Neutral Red according to Example 1, except that dexamethasone or sirolimus were added to the cell culture at concentrations between 10^−12 and 10^−4 mol/L. The percentage of viable NIH-3T3 cells was assayed relative to the control (no drug) and the results are shown in FIGS. 2 (dexamethasone) and 3 (sirolimus).

SMILES	increase of spiral ganglion cell viability (spiral ganglion cells; concentrations between 10^-11 to 10^-7 mol/L (FIG. 2)) [%]	impact on viability of SGC (spiral ganglion cells)	effect on spiral ganglion cell viability (spiral ganglion cells; drug at concentrations between 10^-12 and 10^-4 mol/L, relative to control (no drug), 48 hours)	impact on viability of NIH-3T3 cells (NIH-3T3 fibroblasts)	effect on NIH-3T3 cell viability (NIH-3T3 fibroblasts)	viability (survival) of spiral ganglion cells at high concentration (spiral ganglion cells)	viability (survival) of spiral ganglion cells at high concentration (spiral ganglion cells; listed as Sirolimus)
C[C@@H]1C[C@H]2[C@@H]3CCC4=CC(=O)C=C[C@]4(C)[C@@]3(F)[C@@H](O)C[C@]2(C)[C@@]1(O)C(=O)CO [dexamethasone]	~20	do not have an adverse impact	no toxic effects	do not have an adverse impact	no toxic effects	–	–
CO[C@H]1C[C@@H]2CC[C@@H](C)[C@@](O)(O2)C(=O)C(=O)N2CCCC[C@H]2C(=O)O[C@H]([C@H](C)C[C@@H]2CC[C@@H](O)[C@H](OC)C2)CC(=O)[C@H](C)/C=C(\C)[C@@H](O)[C@@H](OC)C(=O)[C@H](C)C[C@H](C)/C=C/C=C/C=C/1C [sirolimus]	–	do not have an adverse impact	–	do not have an adverse impact	only a small decrease	reduced	substantially reduced
